From paper PMC7385556 (ACS chemical biology, 2020)
Marks after values point to notes of the source that are not given here.

System: Mtb K204
Assay type: cell-based, Mycobacterium tuberculosis
Conditions: KAN alone, no inhibitor

With `NC[C@H]1O[C@H](O[C@H]2[C@H](O)[C@@H](O[C@H]3O[C@H](CO)[C@@H](O)[C@H](N)[C@H]3O)[C@H](N)C[C@@H]2N)[C@H](O)[C@@H](O)[C@@H]1O` [KAN, kanamycin] the “MICKAN in K204” value was >10, >10^d μg/mL.
